Source: publication PMC7580834, “Inhibition mechanism of naphthylphenylamine derivatives acting on the CDC25B dual phosphatase and analysis of the molecular processes involved in the high cytotoxicity exerted by one selected derivative in melanoma cells” (Journal of Enzyme Inhibition and Medicinal Chemistry, 2020)

Key:
Assay type in all cases: cell-based, human
A2058 cells [1] = assay: Apoptosis by cytofluorimetry after PI incorporation (subdiploid DNA content); conditions: 5 or 10 µM, 24-72 h
Method: (§1) The human melanoma cell lines A375 and A2058, deriving from a primary tumour or lymph nodal metastasis, respectively, were kindly provided from CEINGE (Naples, Italy). Cells were grown in DMEM supplemented with 10% FBS, 2 mM L-glutamine, 100 IU/mL penicillin G and 100 µg/mL streptomycin in humidified incubator at 37 °C under 5% CO2 atmosphere. The cell line BJ-5ta, a human skin fibroblast immortalised with the human telomerase reverse transcriptase[30] was cultured in a 4:1 mixture of DMEM and Medium 199 supplemented with 4 mM L-glutamine, 4.5 g/L glucose, 1.5 g/L sodium bicarbonate, 10% FBS, 100 IU/mL penicillin G, […] streptomycin in humidified incubator at 37 °C under 5% CO2 atmosphere. All cells were split and seeded every 3 days and used during their exponential phase of growth. Cell treatments were usually carried out after 24 h from plating.
(§2) Cytofluorimetric analysis was used to determine the number of apoptotic nuclei essentially as previously described. Briefly, cells were seeded into six-well plates at 3 × 10^5 cells/well and after 24 h were treated with 4a or 0.5% (v/v) DMSO and incubated for different times. Then, cells were harvested with trypsin, and centrifuged, and the pellets were resuspended in 200 µL of a hypotonic lysis solution containing 50 µg/mL PI. After incubation at 4 °C for 30 min, cells were analysed with a FACScan flow cytometer (Becton Dickinson, Franklin Lakes, NJ, USA) to evaluate the presence of nuclei with DNA content lower than diploid.

A375 cells = assay: as above; conditions: 5 or 10 µM, 24-72 h
Method: as §1, §2

BJ-5ta cells = assay: as above; conditions: 10 µM, 24-, 48- or 72-h, nontumorigenic fibroblasts
Method: as §1, §2

caspase-9 in A2058 cells = assay: Caspase-9 fluorimetric activity assay in cell lysates; conditions: 10 µM, 24 h
Method: (§3) The caspase-3 and caspase-9 enzymatic activity was measured by using caspase-3 and -9 fluorimetric assay kits, respectively, according to the manufacturer’s protocol. Briefly, cells were seeded into 75 cm^2 plates (2 × 10^6 cells/plate) and after 24 h treated with 4a or 0.5% (v/v) DMSO for 24 h. At the end of incubation, cells were collected, washed with phosphate-buffered saline constituted by 10 mM Na2HPO4, 2 mM KH2PO4, pH 7.4, supplemented with 137 mM NaCl and 2.7 mM KCl (PBS), and finally lysed at 4 °C in the cell lysis buffer. Cell lysates were incubated with 50 µM DEVD-AFC or LEHD-AFC substrates at 37 °C for 2 h, to detect caspase-3 or caspase-9 activity, respectively, using a Cary Eclipse spectrofluorimeter. Excitation and emission wavelengths were set at 400 nm and 505 nm, respectively; both excitation and emission slits were set at 10 nm.

caspase-9 in A375 cells = assay: as above; conditions: 10 µM, 24 h
Method: as §3

A2058 cells [2] = assay: Western blotting of total cell extracts (CDC25A, -B, -C, p53, pAkt); conditions: 10 µM
Method: To obtain the total protein extract, cells were seeded into 6-well-plates (3 × 10^5 cells/plate) for 24 h at 37 °C and then treated with 4a or 0.5% (v/v) DMSO. After treatment, cells were harvested, washed with PBS, and then lysed in ice-cold modified radio immunoprecipitation assay (RIPA) buffer (50 mM Tris•HCl, pH 7.4, 150 mM NaCl, 1% Nonidet P-40, 0.25% sodium deoxycholate, 1 mM Na3VO4 and 1 mM NaF), supplemented with protease inhibitors and incubated for 30 min on ice. The supernatant, obtained after centrifugation at 13200 g for 30 min at 4 °C, constituted the total protein extract. Protein concentration was determined by the Bradford method, using bovine serum albumin (BSA) as standard. To obtain the cytosolic and mitochondrial fractions, cells were plated at a density of 2 × 10^6 cells/plate for 24 h at 37 °C. After the treatment with 4a or 0.5% (v/v) DMSO, cells were harvested, washed in PBS, and then resuspended in buffer A (5 mM Hepes, pH 7.4, 250 mM mannitol, 0.5 mM EGTA, 0.1% BSA), supplemented with protease inhibitors, and homogenised. The homogenate was centrifuged at 600 g for 5 min at 4 °C and the supernatant was then centrifuged at 10300 g for 10 min at 4 °C. The resulting supernatant represented the cytosolic fraction, whereas the pellet, constituting the mitochondrial fraction was resuspended in RIPA buffer. Protein concentration was determined as previously indicated. Equal amounts of total, cytosolic or mitocondrial protein extracts were used for Western blotting analysis. Briefly, protein samples were dissolved in SDS-reducing loading buffer, run on sodium dodecylsulfate polyacrylamide gel electrophoresis (SDS/PAGE), and then transferred to Immobilon P membrane (Millipore, Saint Louis, MO, USA). The filter was incubated with the specific primary antibody at 4 °C overnight and then with the secondary antibody at room temperature for 1 h. Membranes were then analysed by an enhanced chemiluminescence reaction using WesternBright ECL (Advansta, San Jose, CA, USA) according to manufacturer’s instructions; signals were visualised by autoradiography. The analysis of pAkt protein levels was performed as previously described. Briefly, filters were first incubated with the anti-pAkt primary antibody and then with the secondary antibody and membranes were analysed by an enhanced chemiluminescence reaction as previously indicated. The same filters were then stripped, using AbCam (Cambridge, UK) stripping solution, pH 2 (200 mM glycine, 3.5 mM SDS, 1% Tween-20) at 45 °C for 30 min, washed 3 times with PBS-Tween 0.1%, incubated with anti-Akt primary antibody and then with the relative secondary antibody. Signals were detected as previously specified.

CCOC(=O)c1cccc(Nc2cc(OC)cc3ccccc23)c1 [4a]
apoptosis (cells with a hypodiploid DNA content) (A2058 cells [1]): dose- and time-dependent increase | apoptosis (cells with a hypodiploid DNA content) (A375 cells): dose- and time-dependent increase | apoptosis (cells with a subdiploid DNA content) (BJ-5ta cells): does not exert any apoptotic effect | enzymatic activity of caspase-9 (caspase-9 in A2058 cells): statistically significant increase | enzymatic activity of caspase-9 (caspase-9 in A375 cells): statistically significant increase | p53 protein levels (A2058 cells [2]; 16- and 24-h): clear and significant increase | pAkt protein levels (A2058 cells [2]; 30-min): significant and early decrease | CDC25A, -B and -C protein levels (A2058 cells [2]; essentially after 24- and 48-h): reduction of protein levels of all three forms
